Article PMC8377144, “Retro-enantio isomer of angiopep-2 assists nanoprobes across the blood-brain barrier for targeted magnetic resonance/fluorescence imaging of glioblastoma” (Signal Transduction and Targeted Therapy, 2021)

Test system: in vitro BBB model (bEnd.3 cells cocultured with U87-MG cells)
Experiment: NaFl permeability test of the in vitro BBB model (Transwell)
Type: in vitro ADME, mouse
Conditions: bEnd.3 upper / U87-MG lower chamber, 3 µm polycarbonate, 0.33 cm^2, 200 µL NaFl 10 µg/mL upper, 900 µL PBS lower, 37 °C, sampling 30, 60, 90 min, microplate reader 485/535 nm
Description: Construction of the in vitro BBB model: U87-MG cells and bEnd.3 cells were initially cultured in high-glucose DMEM containing 10% FBS and 1% penicillin/streptomycin at 37 °C with 5% CO2. Moreover, a layer of a collagen solution was smeared on the inner side of the polycarbonate Transwell (3 µm mean pore size, 0.33 cm^2 surface area, Millipore, USA) and dried naturally on a clean bench for 30 min. Then, bEnd.3 cells were inoculated into the upper chamber of 24-well transwells units at a density of 5 × 10^4 cells per well. Two days later, U87-MG cells were inoculated into the lower chamber at a density of 1 × 10^5 cells per well and cocultured with bEnd.3 cells for one week.
Another test taken as an example from a previous study using sodium fluorescein (NaFl) was also introduced to evaluate in vitro BBB permeability.[44] […] The absorbance of standard solutions was obtained by a multidetection monochrometer microplate reader, and subsequently, a NaFl concentration-absorbance curve was made. With the help of the curve, we measured the in vitro BBB permeability with NaFl. […] Then, a multidetection monochrometer microplate reader (485/535 nm) was used to measure the amount of NaFl in the […]. The apparent permeability coefficient (Papp) was calculated as follows: […]

Question: For `O=C([O-])c1ccccc1-c1c2ccc(=O)cc-2oc2cc([O-])ccc12.[Na+].[Na+]` [NaFl, sodium fluorescein], which “Papp of NaFl, BBB model group” value is on record?
Answer: 11.24 ± 0.73 × 10^−6 cm/s
